Assay results: patent US8629132B2, “Kinase inhibitors” (Genosco, priority 2009, dated 2014)

Experiments:
SYK = biological target: T1, SYK (Homo sapiens, UniProt P43405); test: Kinase inhibition assay: SYK; type: biochemical; details: at 1 μM concentration
T1 construct: Purified full-length human SYK, ZAP70, PIM1, PYK2; purchased Carna Biosciences
Experimental: (§1) Compounds of the present invention were tested for their capacity to inhibit a kinase panel which includes, but are not limited to, spleen tyrosine kinase (SYK), zeta-chain-associated protein kinase 70 (ZAP70), PTK2B protein tyrosine kinase 2 (PYK2), focal adhesion kinase (FAK), provirus integration of maloney kinase 1 (PIM1), rearranged during transfection kinase (RET), Fms-like tyrosine kinase 3 (FLT3), Janus kinase 2 (JAK2), and leucine-rich repeat kinase 2 (LRRK2).
(§2) Inhibition of SYK, ZAP70, PYK2, FAK, PIM1, RET, FLT3, JAK2 and LRRK2 Kinase Activity
(§3) Compounds of the invention were initially diluted to 10 mM in 100% DMSO (CALBIOCHEM™) for storage and made into kinase buffer solution to create a compound concentration ranging from 1 uM and 10 uM. Serial dilutions of compounds of the invention were dispensed into a 96-well plate (GREINER BIOSCIENCES™) at 6 μL each. Purified full-length human SYK, ZAP70, PIM1, PYK2 and truncated human FAK, RET, FLT3, JAK2, and LRRK2 (CARNA BIOSCIENCES™) were diluted in kinase buffer and added to the compound solutions and pre-incubated for 30 minutes at room temperature (1 hour for PYK2). […] The reaction mixture was incubated for 1 hour (2 hours for PYK2). Following the incubation, the stop solution made with EDTA, water, and Lance detection buffer ([…]™) was added (12μL each) to stop phosphorylation. […] The IC50 value of test compound was calculated at Gradpad Prism 5 unless specified otherwise.

PIM1 = biological target: T2, PIM1 (Homo sapiens, UniProt P11309); test: Kinase inhibition assay: PIM1; type: biochemical; details: at 1 μM concentration
T2 construct: Purified full-length human SYK, ZAP70, PIM1, PYK2; purchased Carna Biosciences
T2 sequence (P11309 whole entry): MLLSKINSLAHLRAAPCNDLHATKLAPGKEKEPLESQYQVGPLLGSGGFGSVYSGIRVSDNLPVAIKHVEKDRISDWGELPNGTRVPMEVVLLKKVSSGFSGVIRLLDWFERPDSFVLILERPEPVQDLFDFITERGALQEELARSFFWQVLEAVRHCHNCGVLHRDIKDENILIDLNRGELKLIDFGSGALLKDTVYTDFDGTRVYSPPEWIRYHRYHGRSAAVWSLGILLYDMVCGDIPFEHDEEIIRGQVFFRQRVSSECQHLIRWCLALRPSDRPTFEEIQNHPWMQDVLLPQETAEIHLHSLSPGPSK
Experimental: as §1, §2
Compounds of the invention were initially diluted to 10 mM in 100% DMSO (CALBIOCHEM™) for storage and made into kinase buffer solution to create a compound concentration ranging from 1 uM and 10 uM. Serial dilutions of compounds of the invention were dispensed into a 96-well plate (GREINER BIOSCIENCES™) at 6 μL each. Purified full-length human SYK, ZAP70, PIM1, PYK2 and truncated human FAK, RET, FLT3, JAK2, and LRRK2 (CARNA BIOSCIENCES™) were diluted in kinase buffer and added to the compound solutions and pre-incubated for 30 minutes at room temperature (1 hour for PYK2). […] The reaction mixture was incubated for 1 hour (2 hours for PYK2). Following the incubation, the stop solution made with EDTA, water, and Lance detection buffer ([…]™) was added (12μL each) to stop phosphorylation. […] Substrate phosphorylation was a function of the 665 nm emission measured following the addition of the detection solution and 50 minutes of incubation. The IC50 value of test compound was calculated at Gradpad Prism 5 unless specified otherwise.

PYK2 = biological target: T3, PYK2 (Homo sapiens, UniProt Q14289); test: Kinase inhibition assay: PYK2; type: biochemical; details: at 1 μM concentration
T3 construct: Purified full-length human SYK, ZAP70, PIM1, PYK2; purchased Carna Biosciences
T3 sequence (Q14289 whole entry): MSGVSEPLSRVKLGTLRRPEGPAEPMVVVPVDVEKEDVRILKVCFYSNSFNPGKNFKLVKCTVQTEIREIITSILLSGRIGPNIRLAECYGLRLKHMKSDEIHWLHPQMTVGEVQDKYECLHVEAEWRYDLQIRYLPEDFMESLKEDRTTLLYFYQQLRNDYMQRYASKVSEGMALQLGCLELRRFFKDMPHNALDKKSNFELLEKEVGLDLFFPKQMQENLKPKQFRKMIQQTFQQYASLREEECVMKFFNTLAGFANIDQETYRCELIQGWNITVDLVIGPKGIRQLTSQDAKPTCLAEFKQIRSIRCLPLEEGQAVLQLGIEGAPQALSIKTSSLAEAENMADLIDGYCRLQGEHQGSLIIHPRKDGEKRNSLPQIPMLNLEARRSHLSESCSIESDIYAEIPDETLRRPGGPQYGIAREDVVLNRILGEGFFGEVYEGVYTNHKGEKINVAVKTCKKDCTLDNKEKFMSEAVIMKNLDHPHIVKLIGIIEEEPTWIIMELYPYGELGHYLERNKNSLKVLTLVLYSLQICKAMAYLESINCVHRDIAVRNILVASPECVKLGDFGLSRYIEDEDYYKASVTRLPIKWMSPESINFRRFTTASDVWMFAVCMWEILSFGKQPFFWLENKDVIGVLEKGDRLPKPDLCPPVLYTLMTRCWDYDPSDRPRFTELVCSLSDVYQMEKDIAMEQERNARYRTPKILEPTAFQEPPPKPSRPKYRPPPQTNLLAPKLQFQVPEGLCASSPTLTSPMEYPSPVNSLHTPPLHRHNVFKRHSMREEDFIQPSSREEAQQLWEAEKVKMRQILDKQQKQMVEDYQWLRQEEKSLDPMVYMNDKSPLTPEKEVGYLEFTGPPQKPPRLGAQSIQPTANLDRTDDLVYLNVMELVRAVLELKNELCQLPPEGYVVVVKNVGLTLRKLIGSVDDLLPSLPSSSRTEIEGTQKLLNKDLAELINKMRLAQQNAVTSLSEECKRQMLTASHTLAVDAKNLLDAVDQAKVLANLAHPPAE
Experimental: as §1, §2, §3

FAK = biological target: T4, FAK (Homo sapiens, UniProt Q05397); test: Kinase inhibition assay: FAK; type: biochemical; details: at 1 μM concentration
T4 construct: truncated human FAK, RET, FLT3, JAK2, and LRRK2; purchased Carna Biosciences
T4 sequence (Q05397 376-1052 limits assumed): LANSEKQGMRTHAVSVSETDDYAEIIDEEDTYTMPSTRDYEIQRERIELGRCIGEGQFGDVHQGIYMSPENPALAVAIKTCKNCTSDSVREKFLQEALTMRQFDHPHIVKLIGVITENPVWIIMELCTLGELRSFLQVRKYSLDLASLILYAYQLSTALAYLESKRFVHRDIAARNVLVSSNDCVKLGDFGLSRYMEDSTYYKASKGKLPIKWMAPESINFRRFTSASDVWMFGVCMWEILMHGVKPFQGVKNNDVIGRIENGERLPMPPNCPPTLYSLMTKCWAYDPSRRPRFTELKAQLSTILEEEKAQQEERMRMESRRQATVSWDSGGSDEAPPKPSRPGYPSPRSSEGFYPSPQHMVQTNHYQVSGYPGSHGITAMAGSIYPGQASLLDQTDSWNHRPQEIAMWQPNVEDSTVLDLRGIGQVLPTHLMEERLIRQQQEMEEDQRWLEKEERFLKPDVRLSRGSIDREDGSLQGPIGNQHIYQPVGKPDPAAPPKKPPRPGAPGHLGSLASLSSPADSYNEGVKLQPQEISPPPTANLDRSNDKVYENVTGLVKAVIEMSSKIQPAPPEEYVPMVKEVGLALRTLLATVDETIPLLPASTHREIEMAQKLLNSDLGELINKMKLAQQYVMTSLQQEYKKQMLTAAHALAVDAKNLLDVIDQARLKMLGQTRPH
Experimental: as §1, §2, §3

ZAP70 = biological target: T5, ZAP70 (Homo sapiens, UniProt P43403); test: Kinase inhibition assay: ZAP70; type: biochemical; details: at 1 μM concentration
T5 construct: Purified full-length human SYK, ZAP70, PIM1, PYK2; purchased Carna Biosciences
T5 sequence (P43403 1-619): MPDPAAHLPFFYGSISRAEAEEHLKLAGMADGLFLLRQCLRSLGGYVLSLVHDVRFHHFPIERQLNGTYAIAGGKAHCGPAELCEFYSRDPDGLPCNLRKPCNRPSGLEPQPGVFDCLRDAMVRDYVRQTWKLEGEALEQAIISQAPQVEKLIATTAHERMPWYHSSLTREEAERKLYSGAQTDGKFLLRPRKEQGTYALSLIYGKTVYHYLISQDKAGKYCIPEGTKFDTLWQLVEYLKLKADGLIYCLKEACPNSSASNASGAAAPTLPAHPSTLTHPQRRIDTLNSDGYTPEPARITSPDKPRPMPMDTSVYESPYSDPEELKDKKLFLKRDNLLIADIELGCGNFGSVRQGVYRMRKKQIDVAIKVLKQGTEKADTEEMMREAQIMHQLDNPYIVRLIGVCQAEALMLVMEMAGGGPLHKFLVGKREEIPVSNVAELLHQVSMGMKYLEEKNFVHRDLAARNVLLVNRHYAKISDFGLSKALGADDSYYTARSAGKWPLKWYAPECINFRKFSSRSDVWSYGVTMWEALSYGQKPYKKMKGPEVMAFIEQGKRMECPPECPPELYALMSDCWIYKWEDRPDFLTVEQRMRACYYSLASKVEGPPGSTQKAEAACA
Experimental: as §1, §2, §3

MTC-TT = test: Cell viability assay: RET inhibition; type: cell-based, human; details: for IC50: Homo sapiens, 48 h, two days after drug treatment; for inhibition level compared with Vandetinib and Sunitinib: RET induced cancer cell line (MTC-TT)
Experimental: To address RET dependent cell viability, the medullary thyroid carcinoma cell line, MTC-TT representing MEN2A was utilized to test compounds of the present invention. MTC-TT were cultured at RPMI containing 15 bovine calf serum (Hyclon™ of Thermo™) and supplemented with 2 mM L-Glutamine The cells were grown at a density of 5×10^4 cells/100 μL/well in duplicate in 96-well plates for one day and treated with different concentrations of test compound. Cell viability for MTC-TT two days after drug treatment was measured by Cell Titer 96 Aqueous One Solution Reagent (Promega™) according to the manufacture instructions.

FLT3 = biological target: T6, FLT3 (Homo sapiens, UniProt P36888); test: Kinase inhibition assay: FLT3; type: biochemical
T6 construct: truncated human FAK, RET, FLT3, JAK2, and LRRK2; purchased Carna Biosciences
T6 sequence (P36888 564-993 limits assumed): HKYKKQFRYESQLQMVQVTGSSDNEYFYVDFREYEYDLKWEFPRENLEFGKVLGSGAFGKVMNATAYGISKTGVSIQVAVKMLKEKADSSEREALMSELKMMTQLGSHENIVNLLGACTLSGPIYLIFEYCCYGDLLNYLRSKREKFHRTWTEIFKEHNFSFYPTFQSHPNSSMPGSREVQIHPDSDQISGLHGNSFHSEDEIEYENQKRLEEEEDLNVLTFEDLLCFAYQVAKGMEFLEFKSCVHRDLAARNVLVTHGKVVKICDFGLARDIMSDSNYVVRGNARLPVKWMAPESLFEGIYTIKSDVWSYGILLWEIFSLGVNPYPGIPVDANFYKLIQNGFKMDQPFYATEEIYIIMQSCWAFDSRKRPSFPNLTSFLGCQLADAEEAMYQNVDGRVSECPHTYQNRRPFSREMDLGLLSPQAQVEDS
Experimental: as §1, §2, §3

RET = biological target: T7, RET (Homo sapiens, UniProt P07949); test: Kinase inhibition assay: RET; type: biochemical
T7 construct: truncated human FAK, RET, FLT3, JAK2, and LRRK2; purchased Carna Biosciences
T7 sequence (P07949 658-1114 limits assumed): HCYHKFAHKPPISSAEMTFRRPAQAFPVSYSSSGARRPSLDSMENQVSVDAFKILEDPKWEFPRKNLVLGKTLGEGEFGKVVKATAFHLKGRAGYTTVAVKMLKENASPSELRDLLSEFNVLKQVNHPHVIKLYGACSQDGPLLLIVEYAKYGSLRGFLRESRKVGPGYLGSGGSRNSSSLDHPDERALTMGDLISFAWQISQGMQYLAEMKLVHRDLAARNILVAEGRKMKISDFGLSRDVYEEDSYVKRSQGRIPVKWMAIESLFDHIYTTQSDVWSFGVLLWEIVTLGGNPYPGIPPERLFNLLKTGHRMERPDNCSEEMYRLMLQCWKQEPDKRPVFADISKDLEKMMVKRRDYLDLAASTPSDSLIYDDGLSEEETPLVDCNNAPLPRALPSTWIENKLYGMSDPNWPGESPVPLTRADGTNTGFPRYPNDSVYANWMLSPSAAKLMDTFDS
Experimental: as §1, §2, §3

LRRK2 = biological target: T8, LRRK2 (Homo sapiens, UniProt Q5S007); test: Kinase inhibition assay: LRRK2; type: biochemical
T8 construct: truncated human FAK, RET, FLT3, JAK2, and LRRK2; purchased Carna Biosciences
T8 sequence (Q5S007 970-2527 limits assumed): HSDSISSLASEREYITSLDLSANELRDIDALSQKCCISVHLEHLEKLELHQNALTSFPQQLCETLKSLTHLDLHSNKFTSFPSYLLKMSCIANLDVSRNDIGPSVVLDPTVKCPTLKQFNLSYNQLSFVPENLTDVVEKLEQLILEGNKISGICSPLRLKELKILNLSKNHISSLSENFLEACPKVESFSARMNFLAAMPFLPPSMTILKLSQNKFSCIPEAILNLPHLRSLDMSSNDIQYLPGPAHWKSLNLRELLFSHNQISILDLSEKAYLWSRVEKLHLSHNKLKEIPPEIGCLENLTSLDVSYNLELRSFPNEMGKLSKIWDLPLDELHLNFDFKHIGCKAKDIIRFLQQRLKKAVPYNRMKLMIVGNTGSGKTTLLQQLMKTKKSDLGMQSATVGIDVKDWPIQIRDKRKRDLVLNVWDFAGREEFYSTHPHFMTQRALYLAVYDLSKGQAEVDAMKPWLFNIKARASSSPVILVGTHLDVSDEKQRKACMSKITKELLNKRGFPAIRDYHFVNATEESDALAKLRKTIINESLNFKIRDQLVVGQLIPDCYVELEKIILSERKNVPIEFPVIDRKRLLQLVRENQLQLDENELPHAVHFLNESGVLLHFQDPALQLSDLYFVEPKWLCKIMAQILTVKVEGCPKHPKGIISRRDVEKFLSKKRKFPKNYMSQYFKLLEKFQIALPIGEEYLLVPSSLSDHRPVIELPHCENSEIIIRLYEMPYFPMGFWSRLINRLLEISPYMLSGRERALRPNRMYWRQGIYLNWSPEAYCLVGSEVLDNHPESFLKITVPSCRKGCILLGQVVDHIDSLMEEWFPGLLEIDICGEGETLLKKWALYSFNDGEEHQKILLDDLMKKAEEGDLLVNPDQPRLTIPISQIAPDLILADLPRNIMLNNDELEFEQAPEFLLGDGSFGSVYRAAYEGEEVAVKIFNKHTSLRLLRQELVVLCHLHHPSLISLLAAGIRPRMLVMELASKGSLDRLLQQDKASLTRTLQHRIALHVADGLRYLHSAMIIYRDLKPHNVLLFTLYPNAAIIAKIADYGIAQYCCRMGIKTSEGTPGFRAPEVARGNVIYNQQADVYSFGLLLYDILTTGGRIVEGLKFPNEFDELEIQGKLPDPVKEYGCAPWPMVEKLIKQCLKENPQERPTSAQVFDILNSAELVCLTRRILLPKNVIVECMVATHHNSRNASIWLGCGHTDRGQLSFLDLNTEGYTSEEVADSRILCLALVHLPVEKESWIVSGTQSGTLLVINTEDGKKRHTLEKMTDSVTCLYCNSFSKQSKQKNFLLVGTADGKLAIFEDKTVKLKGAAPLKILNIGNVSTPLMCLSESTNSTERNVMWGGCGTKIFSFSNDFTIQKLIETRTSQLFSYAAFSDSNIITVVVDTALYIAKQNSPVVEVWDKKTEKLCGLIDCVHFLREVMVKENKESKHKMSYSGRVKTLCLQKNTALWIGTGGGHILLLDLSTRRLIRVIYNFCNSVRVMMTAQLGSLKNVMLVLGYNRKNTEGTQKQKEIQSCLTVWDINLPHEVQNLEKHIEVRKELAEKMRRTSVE
Experimental: as §1, §2, §3

JAK2 = JAK2 (Homo sapiens, UniProt O60674); test: Kinase inhibition assay: JAK2; type: biochemical; set-up: truncated human FAK, RET, FLT3, JAK2, and LRRK2; purchased Carna Biosciences
Sequence of JAK2 (O60674 826-1132 limits assumed): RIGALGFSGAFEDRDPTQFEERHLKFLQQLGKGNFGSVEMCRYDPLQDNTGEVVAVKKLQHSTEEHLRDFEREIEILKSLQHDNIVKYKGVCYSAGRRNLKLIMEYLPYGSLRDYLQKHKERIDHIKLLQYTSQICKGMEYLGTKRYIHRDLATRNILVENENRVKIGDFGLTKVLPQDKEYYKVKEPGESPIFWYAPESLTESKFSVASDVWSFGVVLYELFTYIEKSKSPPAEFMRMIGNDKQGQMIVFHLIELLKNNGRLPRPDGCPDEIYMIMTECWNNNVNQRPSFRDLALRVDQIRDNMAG
Experimental: as §1, §2, §3

inhibition at 1 µM (SYK) [%] | inhibition at 1 µM (PIM1) [%] | inhibition at 1 µM (PYK2) [%] | inhibition at 1 µM (FAK) [%] | inhibition at 1 µM (ZAP70) [%] | IC50 (FLT3) [nM] | IC50 (RET) [nM] | IC50 (LRRK2) [nM] | IC50 (JAK2) [nM] | SMILES | IC50 (MTC-TT) [nM] | inhibition level compared with Vandetinib and Sunitinib (MTC-TT)
82.7 | 21.9 | 30.6 | 36.9 | 41.3 | – | – | – | – | Cc1cc(C)cc(Nc2ncc(F)c(-n3cc(C)c(CO)c3)n2)c1 [Compound 14, (1-(2-(3,5-dimethyl-phenylamino)-5-fluoro-pyrimidin-4-yl)-4-methyl-1H-pyrrol-3-yl)methanol] | – | –
41.8 | 3.7 | 18 | 17.7 | 19.3 | – | – | – | – | Cc1cc(C)cc(Nc2ncc(F)c(-n3cc(C(=O)N4CC[C@@H](O)C4)c(C)n3)n2)c1 [Compound 38, (R)-(1-(2-(3,5-dimethylphenylamino)-5-fluoropyrimidin-4-yl)-3-methyl-1H-pyrazol-4-yl)(3-hydroxypyrrolidin-1-yl)methanone] | – | –
– | – | – | – | – | 0.17 | 10.2 | 275 | 3.7 | COc1cc(Nc2ncc(C)c(-n3cc(C)c(CN4CCN(CCO)CC4)c3)n2)cc(OC)c1OC [Compound 40, 2-(4-((4-methyl-1-(5-methyl-2-(3,4,5-trimethoxyphenylamino)pyrimidin-4-yl)-1H-pyrrol-3-yl)methyl)piperazin-1-yl)ethanol] | 78.4 | greater than those exhibited by Vandetinib and Sunitinib
– | – | – | – | – | 1.7 | 2.3 | – | 2.5 | Cc1cn(-c2nc(Nc3cc(C)c(OCCO)c(C)c3)ncc2C)cc1CN(C)C [Compound 121, 2-(4-(4-(3-((dimethylamino)methyl)-4-methyl-1H-pyrrol-1-yl)-5-methylpyrimidin-2-ylamino)-2,6-dimethylphenoxy)ethanol] | 34.6 | greater than those exhibited by Vandetinib and Sunitinib
